{"source": "patent US7332292B2", "about": "“Constitutively translocating cell line” (priority 2002, dated 2008)", "system": "angiotensin II type 1A receptor (AT1AR)", "test": "GRK2-C20 induced ligand-independent arrestinGFP translocation to the AT1AR in U2OS cells (INCell Analyzer)", "type": "cell-based", "procedure": "U2OS cells stably expressing arrestinGFP and the angiotensin II type 1A receptor (AT1 AR) were transiently transduced with human GRK2-C20 using a baculovirus expression system. A range of GRK2-C20 expression levels was obtained by using varying amounts (serial dilution) of the GRK2-C20 baculovirus.\nTo test whether the ligand-independent arrestinGFP translocation could be blocked by an antagonist/inverse agonist of the AT1AR, the cells were treated with losartan. Losartan is a nonpeptide molecule that functions as an antagonist/inverse agonist of the AT1AR. Losartan (1 μM final concentration) was added to the cells either immediately after transduction for an 18 hour incubation or 15 hours after transduction for a 3 hour incubation. At the end of the incubation, the cells were analyzed for arrestinGFP translocation using the INCell Analyzer system.", "data": [{"molecule": "CCCCc1nc(Cl)c(CO)n1Cc1ccc(-c2ccccc2-c2nnn[nH]2)cc1", "note": "[losartan, Losartan]", "values": [{"measurement": "effect on ligand-independent translocation of arrestinGFP to the AT1AR induced by expression of GRK2-C20", "setting": "losartan 1 μM final concentration, 3 hour or 18 hour incubation, U2OS cells stably expressing arrestinGFP and AT1AR", "result": "blocks the ligand-independent translocation of arrestinGFP to the AT1AR"}, {"measurement": "inhibition of the ligand-independent translocation of arrestinGFP to the AT1AR", "setting": "losartan 1 μM, 18 hour incubation, lower levels of GRK2-C20 expression (1:64, 1:128, and 1:256 dilutions of baculovirus)", "result": "greater than 90%"}]}]}
